Patent US20250368638A1, “BICYCLIC INHIBITORS OF NICOTINAMIDE […], COMPOSITIONS AND USES THEREOF” (President and Fellows of Harvard College, priority 2021, published 2025)
Values joined by “and” are separate entries in the source; they are usually repeats but may differ in a detail not shown here. Equal values may be shown once.

Experiments:
[1] = FIG. 20
Description: Table printed on a drawing sheet, FIG. 20
The patent's description of the figure: FIG. 20 is a table summarizing mean PK parameters of various compound 11 samples after different PO dosages in female C57B16/N mice.
First reader's note: The asterisks on two AUC values are not explained on the sheet; the first grid row holds only the heading 'PK Parameter'.

[2] = test system: K562 (ATCC) cells; assay: Cellular potency: 1-MNA levels in K562 cells after compound incubation; type: cell-based; conditions: Homo sapiens, 24 h incubation
Experimental: Cellular potency was measured in K562 (ATCC) cells via measuring (1-methyl nicotinamide) 1-MNA levels after compound incubation at varying concentrations overnight. Cells were plated at 1 million per well and were incubated for 24 h with compounds at indicated concentrations. Cells were collected by pipetting and extracted with 200 ul acetonitrile containing internal deuterated standard 10 ng/ml d4-1-MNA. Samples were analyzed on an Agilent 64-60 Triple Quad LC/MS with Agilent 1290 Infinity HPLC using a Restek Allure 5 um PPFP column 150 mm×2.1. The mobile phase A was 2.5 mM ammonium formate in water, and mobile phase B was methanol with 0.1% formic acid, delivered at 0.25 mL/min. The capillary voltage was set to 2400V and the nozzle at 300V. The drying gas temperature was 240° C., the drying gas flow rate was 4 L/min, and the nebulizer pressure was 40 psi. The mass spectrometer was run in multiple reaction monitoring mode. Mass transitions were m/z 137.1 à 94.1 for 1-MNA and m/z 141.1 à 98.1 for d4-MNA.

[3] = biological target: T1, recombinant human NNMT (Homo sapiens, UniProt P40261); assay: in vitro NNMT enzyme inhibition assay (Promega MTase-Glo Methyltransferase Assay); type: biochemical; conditions: 40 nM recombinant human NNMT, 8 μM nicotinamide, 6.7 μM SAM, 20 minutes
T1 sequence (P40261 1-264): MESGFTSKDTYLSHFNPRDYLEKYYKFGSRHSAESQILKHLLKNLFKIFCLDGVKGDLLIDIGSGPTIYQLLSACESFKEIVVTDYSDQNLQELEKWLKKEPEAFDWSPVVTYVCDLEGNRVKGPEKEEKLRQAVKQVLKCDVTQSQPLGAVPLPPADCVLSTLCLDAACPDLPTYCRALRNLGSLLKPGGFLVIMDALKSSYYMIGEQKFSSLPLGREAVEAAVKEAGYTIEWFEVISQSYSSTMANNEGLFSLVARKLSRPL
Experimental: NNMT biochemical activity for was evaluated using the Promega Mtase-Glo Methyltransferase Assay kit. Assays were performed in a white, flat-bottomed 96 well plate. […] Reactions were performed for 20 minutes at room temperature. MTase-Glo reagent and MTase-Glo detection solution were added according to manufacturer's instructions and luminescence signal measured with a SpectraMax i3 plate reader and data analyzed with GraphPad Prism version 9. Scheme 16 depicts a visual summary of the Promega MTase-Glo Methyltransferase assay used to assess biochemical activity of novel inhibitors.

[4] = Permeability assay in Caco-2 cells; conditions: human; for Papp A→B at 2 h, 5 μM / Papp B→A at 2 h, 5 μM / efflux ratio at 2 h, 5 μM: Caco-2, pH 7.4; for recovery at 2 h, 5 µM: Caco-2
Experimental: Preparation of Caco-2 Cells: 50 μL and 25 mL of cell culture medium were added to each well of the Transwell insert and reservoir, respectively. And then the HTS transwell plates were incubated at 37° C., 5% CO2 for 1 hour before cell seeding. […] Cell culture medium was replaced every other day, beginning no later than 24 hours after initial plating.
Preparation of Stock Solutions: The stock solutions of control and test compounds were prepared in DMSO at the concentration of 10 mM. Digoxin, Prazosin and propranolol were used as control compounds in this assay.
Assay Procedures: The Caco-2 plate was removed from the incubator and washed twice with pre-warmed HBSS (10 mM HEPES, pH 7.4), and then incubated at 37° C. for 30 minutes. The stock solutions of controls and Test compounds were diluted in DMSO to get 1 mM solutions and then diluted with HBSS (10 mM HEPES, pH 7.4) to get 5 μM working solutions. The final concentration of DMSO in the incubation system was 0.5%. To determine the rate of drug transport in the apical to basolateral direction. Add 125 μL of the test compounds to the Transwell insert (apical compartment), and transfer 50 μL sample (DO sample) immediately from the apical compartment to a new 96-well plate. Fill the wells in the receiver plate (basolateral compartment) with 235 μL of HBSS (10 mM HEPES, pH 7.4). To determine the rate of drug transport in the basolateral to apical direction. Add 285 μL of the test compounds to the receiver plate wells (basolateral compartment), and transfer 50 μL sample (DO sample) immediately from the basolateral compartment to a new 96-well plate. Fill the Transwell insert (apical compartment) with 75 μL of HBSS (10 mM HEPES, pH 7.4). Time 0 samples were prepared by transferring 50 μL of 5 μM working solution to wells of the 96-deepwell plate, followed by the addition of 200 μL cold acetonitrile containing appropriate internal standards (100 nM alprazolam, 200 nM labetalol, 200 nM caffeine and 200 nM diclofenac). The plates were incubated at 37° C. for 2 hours. […] Samples were vortexed for 5 minutes and then centrifuged at 3,220 g for 40 minutes. An aliquot of 100 μL of the supernatant was mixed with 100 μL of ultra-pure water to use for LC-MS/MS analysis. To determine the Lucifer Yellow leakage after 2 hour transport period, stock solution of Lucifer yellow was prepared in water and diluted with HBSS (10 mM HEPES, pH 7.4) to reach the final concentration of 100 μM. 100 μL of the Lucifer yellow solution was added to each Transwell insert (apical compartment), followed by filling the wells in the receiver plate (basolateral compartment) with 300 μL of HBSS (10 mM HEPES, pH 7.4). The plates were incubated at 37° C. for 30 minutes. 80 μL samples were removed directly from the apical and basolateral wells (using the basolateral access holes) and transferred to wells of new 96 wells plates.

[5] = FIG. 19
Experimental: Table printed on a drawing sheet, FIG. 19
Footnotes: %Q: The percent of compound remaining after 60 minutes of exposure to liver microsomes
The patent's description of the figure: FIG. 19 is a table summarizing PK/PD data for compounds 1 to 3 and 11.
First reader's note: The CL value of Compound 11 (36.1) is boxed on the sheet.

[6] = Caco-2, pH 7.4, Recovery (%) AP-BL
[7] = Caco-2, pH 7.4, Recovery (%) BL-AP

C[C@@H]1Cc2cc(C(N)=O)cnc2N1 [compound 11]
AUClast (h*ng/mL) [1]: 54,351 h*ng/mL
F(%) [1]: >100%
T1/2 [1]: 41.6 min and 50.5 min and 42.5 min
Tmax [1]: 20 min and 34.8 min

Cc1c(C(N)=O)cnc2c1C[C@@H](C)N2 [Compound 19A]
IC50 [2]: 12 nM
IC50 [3]: 28 nM and 28 to 43 nM

C[C@H]1Nc2ncc(C(N)=O)cc2[C@@H]1C [Compound 26A]
IC50 [2]: 114 nM
IC50 [3]: 20 nM

COc1cc2nc(N3CCN(C(=O)c4ccco4)CC3)nc(N)c2cc1OC [Prazosin]
Papp A→B at 2 h, 5 μM [4]: 9.44 ×10⁻⁶ cm/s
Papp B→A at 2 h, 5 μM [4]: 28.9 ×10⁻⁶ cm/s
efflux ratio at 2 h, 5 μM [4]: 3.06
recovery at 2 h, 5 µM [4, 6]: 77%
recovery at 2 h, 5 µM [4, 7]: 90.4%

CC(C)NCC(O)COc1cccc2ccccc12 (stereo not shown) [Propranolol]
Papp A→B at 2 h, 5 μM [4]: 26.9 ×10⁻⁶ cm/s
Papp B→A at 2 h, 5 μM [4]: 16.6 ×10⁻⁶ cm/s
efflux ratio at 2 h, 5 μM [4]: 0.62
recovery at 2 h, 5 µM [4, 6]: 80%
recovery at 2 h, 5 µM [4, 7]: 88.5%

Cc1c(C(N)=O)cnc2c1CC(C)N2 (stereo not shown) [Compound 18]
IC50 [3]: 848 nM

NC(=O)c1cnc2c(c1)CCN2 [Compound 1]
%Q (Human) [5]: 101.05%
%Q (Mouse) [5]: 88.98%
AUClast [5]: 255 ng·h/mL
CL [5]: 64.2 mL/min/kg
T1/2 [5]: 10.9 min
Vss [5]: 0.904 L/kg
IC50 [3]: 105 nM

C[C@H]1O[C@@H](O[C@H]2[C@@H](O)C[C@H](O[C@H]3[C@@H](O)C[C@H](O[C@H]4CC[C@@]5(C)[C@H](CC[C@@H]6[C@@H]5C[C@@H](O)[C@]5(C)[C@@H](C7=CC(=O)OC7)CC[C@]65O)C4)O[C@@H]3C)O[C@@H]2C)C[C@H](O)[C@@H]1O [Digoxin]
Papp A→B at 2 h, 5 μM [4]: 0.67 ×10⁻⁶ cm/s
Papp B→A at 2 h, 5 μM [4]: 19 ×10⁻⁶ cm/s
efflux ratio at 2 h, 5 μM [4]: 28.2
recovery at 2 h, 5 µM [4, 6]: 79.1%
recovery at 2 h, 5 µM [4, 7]: 94.5%
